Measurements reported in patent US8557829B2, “Use of allopurinol for the treatment of palmar plantar erythrodysesthesia” (Nobera Pharma, S.L., priority 2006, dated 2013).

Assays:
[1] = system: Patients suffering from colon cancer or breast cancer; assay: Example 3: appearance of PPE under standard chemotherapy; assay type: in vivo, human
Method: (§1) Patients suffering from colon cancer or breast cancer were treated from January 2005 up to March 2007 with the following standard chemotherapy: • AIO protocol: high dose infusion 5FU24H+leucovorin • FOLFOX 4 protocol: day 1: oxaliplatin, 85 mg/m2, and leucovorin, 200 mg/m2, concurrently i.v., then 5-FU, 400 mg/m2 i.v. bolus followed by 600 mg/m2 continuous i.v.; day 2: leucovorin, 200 mg/m2 i.v., then 5-FU, 400 mg/m2 i.v. bolus, followed by 600 mg/m2 continuous i.v.; repeated every 2 weeks. • Oral capecitabine.
Palmar plantar erythrodysesthesia (PPE) appeared in 30% of the patients treated with 5-FU and in 66% of those treated with capecitabine.

cancer patients = settings: colon / colorectal cancer, versus fluorouracil+leucovorin; cited from earlier work
[2] = system: Patients suffering from colon cancer or breast cancer; assay: Example 3: response of PPE to allopurinol cream treatment; assay type: in vivo, human
Method: as §1
The cream comprising allopurinol as prepared in example 1 was topically applied by the patients 4-5 times a day to the hands and feet. In case of no response to this treatment and persistence of PPE symptoms, the dosage of chemotherapy was reduced and some cases interrupted.

uridine phosphorylase = uridine phosphorylase (Homo sapiens, UniProt Q16831); settings: Gallo et al. J Biological Chemistry 1968; cited from earlier work
[3] = system: Patients with colorectal carcinoma; assay: Example 2: treatment of palmar plantar erythrodysesthesia with the allopurinol cream; assay type: in vivo, human
Method: Patients with colorectal carcinoma were administered chemotherapy (adjuvant or palliative) following the usual protocols. As soon as the first symptoms of palmar planar erythrodysesthesia appeared after starting chemotherapy, the patients were administered the cream prepared in example 1.
The characteristics of the patients treated with the cream and the chemotherapeutic regimen that they were administered were as follow:
Patients with advanced or metastatic colorectal cancer: 8
Patients with resected stage III colon cancer: 2
• 5FU+LV bolus (Mayo protocol): 1 patient • 5FU+LV infusional (AIO protocol): 7 patients • Capecitabine monotherapy: 2 patients
The cream was applied 5 times per day, to the palms and soles, as long as the chemotherapy was applied. The frequency was reduced in between cycles and increased shortly before and during chemotherapy administration.

[4] = cited from earlier work
[5] = target: T1, deoxythymidine phosphorylase (thymidine phosphorylase, TP) (Homo sapiens, UniProt P19971); settings: Gallo et al. J Biological Chemistry 1968; cited from earlier work
T1 sequence (P19971 11-482): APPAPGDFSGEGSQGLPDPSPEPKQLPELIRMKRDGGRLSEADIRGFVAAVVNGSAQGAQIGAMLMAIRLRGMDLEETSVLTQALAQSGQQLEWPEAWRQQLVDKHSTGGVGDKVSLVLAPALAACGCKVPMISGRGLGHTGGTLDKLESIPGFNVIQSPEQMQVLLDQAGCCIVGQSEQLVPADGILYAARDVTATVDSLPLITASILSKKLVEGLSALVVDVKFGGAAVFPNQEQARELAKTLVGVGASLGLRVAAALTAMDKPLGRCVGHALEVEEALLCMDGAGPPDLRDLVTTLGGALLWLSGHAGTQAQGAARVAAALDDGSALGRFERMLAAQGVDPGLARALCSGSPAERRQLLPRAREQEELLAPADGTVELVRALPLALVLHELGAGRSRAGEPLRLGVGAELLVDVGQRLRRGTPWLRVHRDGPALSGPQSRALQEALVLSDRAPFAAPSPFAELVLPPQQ

[6] = standard chemotherapy, before allopurinol treatment
[7] = 2 PPE patients on FOLFOX-4 chemotherapy
[8] = 3% cream 4-5 times a day to hands and feet
[9] = 5 PPE patients on AIO chemotherapy
[10] = 8 PPE patients on Capecitabine chemotherapy
[11] = all 15 PPE patients, 3% cream 4-5 times a day
[12] = all 15 PPE patients, 3% cream 4-5 times a day, listed as allopiirinol

Sequence of uridine phosphorylase (Q16831 whole entry): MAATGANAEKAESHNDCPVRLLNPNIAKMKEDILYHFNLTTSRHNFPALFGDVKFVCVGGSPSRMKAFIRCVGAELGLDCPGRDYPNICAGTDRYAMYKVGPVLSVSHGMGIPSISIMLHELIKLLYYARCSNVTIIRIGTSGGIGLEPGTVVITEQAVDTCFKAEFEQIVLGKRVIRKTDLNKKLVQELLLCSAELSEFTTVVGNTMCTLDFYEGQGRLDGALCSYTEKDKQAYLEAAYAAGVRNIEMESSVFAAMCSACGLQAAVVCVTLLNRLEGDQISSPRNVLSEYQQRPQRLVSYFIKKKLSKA

O=c1[nH]cc(F)c(=O)[nH]1 [5-FU, Fluorouracil]
PPE symptoms, % of patients [1, 6]: 30%

CCCCCOC(=O)Nc1nc(=O)n([C@@H]2O[C@H](C)[C@@H](O)[C@H]2O)cc1F [Capecitabine]
Cumulative dosis with capecitabine until apprearauce of PPE, Median ([1]; patients who developed PPE): 81.000 mg | PPE symptoms, % of patients [1, 6]: 66% | PPE symptoms, n (of patients treated) [1, 6]: 8(12) | PPE symptoms, % of patients ([1]; standard chemotherapy, before allopurinol treatment, listed as capecitabine): 66% | incidence of hand-foot syndrome (PPE), all grades (cancer patients): 49-60% | incidence of hand-foot syndrome (PPE), severe grades (cancer patients): 17%

Oc1ncnc2[nH]ncc12 [allopurinol, 1,5-dihydro-4H-pyrazolo[3,4-d]pyrimidin-4-one]
NR: no response, % [2, 7]: 50% | PR: Partial remission, % [2, 7]: 50% | TR: total response, % [2, 7]: 50% | patients that had developed PPE in whom chemotherapy was completed as planned [2, 8]: 86% | toxic effects associated to the topical treatment [2, 8]: No toxics effects | CR: complete remission, % [2, 9]: 80% | NR: no response, % [2, 9]: 0% | PR: Partial remission, % [2, 9]: 20% | TR: total response, % [2, 9]: 100% | CR: complete remission, % [2, 10]: 62.5%^ | NR: no response, % [2, 10]: 12.5% | PR: Partial remission, % [2, 10]: 25% | TR: total response, % [2, 10]: 87% | quality of life ([2]; PPE patients treated with the 3% cream): significantly improved | CR: complete remission, % [2, 11]: 66% | NR: no response, % [2, 11]: 13.3%^ | PR: Partial remission, % [2, 11]: 20% | TR: total response, % ([2]; all 15 PPE patients, 3% cream 4-5 times a day to hands and feet): 86% | TR: total response, % ([2]; all 15 PPE patients, 3% cream 4-5 times a day to hands and feet, listed as allopiirinol): 86.6%^ | CR: complete remission, % [2, 12]: 66.6%^ | PR: Partial remission, % [2, 12]: 20.0%^ | inhibition of uridine phosphorylase (uridine phosphorylase): not uridine phosphorylase | symptoms of PPE following the topical treatment ([3]; 10 patients on 5FU+LV (Mayo or AIO) or capecitabine, 3% cream of example 1, 5 times per day to palms and soles): the symptoms of PPE disappeared | completion of chemotherapy ([3]; 10 patients on 5FU+LV or capecitabine, 3% cream, 5 times per day to palms and soles): completed without any dose reduction or delay in the treatment due to PPE | appearance of PPE ([3]; topical application to cancer patients being treated with chemotherapy (summary statement)): completely avoided the appearance of PPE | solubility in chloroform and in ether [4]: practically insoluble | solubility in dilute solutions of alkali hydroxides [4]: dissolves | solubility in water and alcohol [4]: very slightly soluble | inhibition of thymidine phosphorylase (TP) [5]: inhibits TP
